Measured values: PMC2649376 (Molecular membrane biology, 2006)
Changes are numbered by the printed parent chain.

Experiments:
[1] = molecular target: T1, F130W mutant 5-HT3 receptor (Mus musculus, UniProt P23979, F130W); experiment: FlexStation membrane potential dye functional assay; format: cell-based
T1 sequence (P23979 24-483 isoform P23979-2 F130W limits assumed): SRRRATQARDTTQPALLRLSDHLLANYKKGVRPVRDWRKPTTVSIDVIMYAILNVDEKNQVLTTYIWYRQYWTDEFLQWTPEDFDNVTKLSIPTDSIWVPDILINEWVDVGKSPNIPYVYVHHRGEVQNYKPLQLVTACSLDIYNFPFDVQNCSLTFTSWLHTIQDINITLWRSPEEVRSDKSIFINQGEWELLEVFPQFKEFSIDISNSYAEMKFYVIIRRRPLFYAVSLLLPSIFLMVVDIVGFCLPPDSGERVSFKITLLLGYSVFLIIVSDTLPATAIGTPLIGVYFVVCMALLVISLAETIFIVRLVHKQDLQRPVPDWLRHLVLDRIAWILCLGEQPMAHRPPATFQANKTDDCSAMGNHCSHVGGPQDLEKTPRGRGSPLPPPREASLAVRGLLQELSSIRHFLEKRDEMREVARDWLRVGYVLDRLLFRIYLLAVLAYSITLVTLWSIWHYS

[2] = molecular target: T2, N128D mutant 5-HT3 receptor (Mus musculus, UniProt P23979, N128D); conditions: HEK 293 cells
T2 sequence (P23979 24-483 isoform P23979-2 N128D limits assumed): T1 sequence (P23979 24-483 isoform P23979-2 F130W limits assumed) with N105D, W107F

[3] = molecular target: T3, N128R mutant 5-HT3 receptor (Mus musculus, UniProt P23979, N128R)
T3 sequence (P23979 24-483 isoform P23979-2 N128R limits assumed): T1 sequence (P23979 24-483 isoform P23979-2 F130W limits assumed) with N105R, W107F

[4] = molecular target: T4, N128L mutant 5-HT3 receptor (Mus musculus, UniProt P23979, N128L); conditions: HEK 293 cells
T4 sequence (P23979 24-483 isoform P23979-2 N128L limits assumed): T1 sequence (P23979 24-483 isoform P23979-2 F130W limits assumed) with N105L, W107F

[5] = molecular target: T5, F130A mutant 5-HT3 receptor (Mus musculus, UniProt P23979, F130A); experiment: FlexStation membrane potential dye functional assay; format: cell-based
T5 sequence (P23979 24-483 isoform P23979-2 F130A limits assumed): T1 sequence (P23979 24-483 isoform P23979-2 F130W limits assumed) with W107A

[6] = molecular target: T6, F130Y mutant 5-HT3 receptor (Mus musculus, UniProt P23979, F130Y); experiment: as above; format: cell-based; conditions: HEK 293 cells
T6 sequence (P23979 24-483 isoform P23979-2 F130Y limits assumed): T1 sequence (P23979 24-483 isoform P23979-2 F130W limits assumed) with W107Y

[7] = molecular target: T7, N128V mutant 5-HT3 receptor (Mus musculus, UniProt P23979, N128V); experiment: as above; format: cell-based
T7 sequence (P23979 24-483 isoform P23979-2 N128V limits assumed): T1 sequence (P23979 24-483 isoform P23979-2 F130W limits assumed) with N105V, W107F

[8] = molecular target: T8, N128Q mutant 5-HT3 receptor (Mus musculus, UniProt P23979, N128Q); conditions: HEK 293 cells
T8 sequence (P23979 24-483 isoform P23979-2 N128Q limits assumed): T1 sequence (P23979 24-483 isoform P23979-2 F130W limits assumed) with N105Q, W107F

[9] = molecular target: T6, F130Y mutant 5-HT3 receptor; conditions: whole cell electrophysiology, ref Steward et al. 2000; cited from earlier work
[10] = molecular target: T9, N128E mutant 5-HT3 receptor (Mus musculus, UniProt P23979, N128E); experiment: FlexStation membrane potential dye functional assay; format: cell-based
T9 sequence (P23979 24-483 isoform P23979-2 N128E limits assumed): T1 sequence (P23979 24-483 isoform P23979-2 F130W limits assumed) with N105E, W107F

[11] = molecular target: F130N mutant 5-HT3 receptor; conditions: F130N mutant receptor activated with acetylcholine; ref Steward et al. 2000; cited from earlier work

SMILES	change in EC50 versus wild type [1]	Hill Coefficient ([1]; HEK 293 cells)	Hill Coefficient [2]	factor of increase in EC50 versus wild type [3]	Hill Coefficient [4]	change in EC50 versus wild type [5]	Hill Coefficient ([5]; HEK 293 cells)	Hill Coefficient [6]	change in EC50 versus wild type [7]	Hill Coefficient ([7]; HEK 293 cells)	Hill Coefficient [8]	increase in EC50 versus wild type reported previously [9] [fold]	change in EC50 versus wild type [10]	Hill Coefficient ([10]; HEK 293 cells)	EC50 [11] [µM]
NCCc1c[nH]c2ccc(O)cc12 [5-HT, 5-hydroxytryptamine]	four-fold decrease in EC50	2.159±0.35	2.169±0.68	~1500	2.519±0.15	four-fold decrease in EC50	2.959±0.39	2.609±0.39	four-fold decrease in EC50	1.809±0.34	1.929±0.08	8	did not significantly affect the EC50	2.369±0.12	–
CC(=O)OCC[N+](C)(C)C [acetylcholine]	–	–	–	–	–	–	–	–	–	–	–	–	–	–	256
